According to patent publication US20250313535A1, “ALPHA 4 BETA 7 INTEGRIN MODULATORS AND USES THEREOF” (DICE MOLECULES SV, INC., priority 2022, published 2025):
Read-outs that look alike come from different tables or passages of the source.

Assays:
α4β7 integrin = α4β7 integrin (Homo sapiens (Human), UniProt P13612+P26010); assay: Integrin Adhesion Assay: Protocol 4 (MAdCAM-coated plate, RPMI-8866 cells with stable LOF mutation of the ITGB1 gene); type: cell-based
Experimental: (§1) Integrin Adhesion Assay Using Genetically Modified Cells Generating Stable Cell Lines with ITGB1 or ITGB7 Knockout (Protocol 4 and Protocol 5)
(§2) To obtain subclones of the RPMI-8866 cell line (Sigma-Aldrich, St. Louis, MO) that were individually deficient in either integrin β1 or integrin β 7, CRISPR/Cas9 technology was employed (PMID: 30108345). Specifically, a Neon™ Transfection System System 10 μL Kit and the Neon™ Transfection device (both from ThermoFisher Scientific) were used.
(§3) The protocol was performed following the manufacturer instructions, described in https://www.thermofisher.com/document-connect/document-connect.html?url=https % 3A%2F%2F assets.thermofisher.com%2FTFS-Assets%2FLSG%2Fmanuals%2FMAN0017066_TrueCut Cas9_Protein_v2_UG.pdf, which is incorporated by reference herein in its entirety.
(§4) RPMI-8866 cells were transferred to a flask the day before transfection, at a confluence of 5×10^5 cells/mL. The cells were washed with PBS and resuspended in buffer R (Neon™ Transfection System, Invitrogen) to 2×10^5 cells/10 uL for each reaction. The TrueCut™ HiFi Cas9 Protein (1250 ng per reaction) was mixed with TrueGuide™ sgRNA (7.5 pmoles each/pool of 3 sequences, table 1) (ThermoFisher Scientific). This mix was combined with the RPMI-8866 cells and electroporated on the Neon system at 1700V/20 ms/1 pulse. Transfected cells were allowed to recover in 500 μL pre-warmed cRMPI media (RPMI-1640 media with 10% FBS, 100 U/ml Penicillin-Streptomycin) at 37° C., 5% CO2 for 24 hours. At that time, an extra 500 μL of pre-warmed cRMPI media was added, and cells were incubated for another 24 hours.
(§5) For flow cytometry analysis, 100 μL of the transfected cells were collected and stained with anti-itga4 (Clone: 9F10, PE, BD Pharmingen™), anti-itgb 1 (Clone: (TS2/16), Super Bright 436, eBioscience), anti-itgb7 (Clone: FIB504, Brilliant Violet 650, BD Pharmingen™) and viability dye (LIVE/DEAD™ Fixable Green Dead Cell Stain, Invitrogen™). An Attune NxT Flow Cytometer was used to analyze the CRISPR-transfected cells. The flow cytometry results were analyzed using FlowJo™ v10.8.1 Software (BD Life Sciences). Fluorescence minus one (FMO) controls were used to select appropriate gates for data analysis.
(§6) To generate an individual clones of cells deficient in either ITGB7 or ITGB1 by limiting dilution assay, the transfected cells were resuspended at 5 cells/mL and seeded in 384 well plates. Outgrowth of clones was monitored using a microscope, and 24 clones were transferred for expansion. Expression of either integrin was verified by flow cytometry in each of the clones. One clone of each integrin b7 or the integrin b1 knockout was chosen, expanded and aliquots were frozen in vapor phase liquid nitrogen.
Integrin Adhesion Assay: Protocol 4
(§7) MAdCAM (R&D Systems, 0.1 ug) was diluted in 50 μL PBS, added to each well of an opaque ELISA plate (Thermo), and incubated overnight at 4° C. Coated plates were washed once with PBS and then blocked with 200 μL of assay buffer (10 mM HEPES, 150 mM NaCl, 1 mM MnCl2, 0.1 mM CaCl2), 1% BSA) for 1 hour at 37° C. and 5% CO2. After incubation, buffer was aspirated from the plates and 50 μL of fresh assay buffer was added. Compounds were added using a compounds dispenser (Tecan), and DMSO concentration was normalized to 1% across each plate. 50 μL of RPMI-8866 cells with a stable loss of function (LOF) mutation of the ITGB1 gene (2×10^6 per mL) were added to each well and the plates were incubated for 1 hour at 37° C. at a CO2 concentration of 5%. After incubation, plates were allowed to cool to RT for 10 minutes before being washed four times in assay buffer by an automated plate washer (BioTek). After washing, 100 μL of a 1:1 mixture of assay buffer and CellTiter GLO 2.0 reagent (Promega) were added to each well. Plates were mixed for 2 minutes at 1000 rpm and then allowed to incubate an additional 10 minutes before reading out luminescence on a Tecan Spark plate reader. […]

α4β1 integrin = α4β1 integrin (Homo sapiens (Human), UniProt P05556+P13612); assay: Integrin Adhesion Assay: Protocol 5 (VCAM-coated plate, RPMI-8866 cells with stable LOF mutation of the ITGB7 gene); type: cell-based
Experimental: as §1, §2, §3, §4, §5, §6
Integrin Adhesion Assay: Protocol 5
as §7, with “VCAM” for “MAdCAM”, “by” for “using a”, “(Tecan)” for “(Tecan),”, “LOF” for “loss of function (LOF)”, “ITGB7” for “ITGB1”, “and 5% CO2.” for “at a CO2 concentration of 5%.”

[1] = Protocol 4, RPMI-8866 cells with LOF mutation of ITGB1, MAdCAM, read-out: Mean IC50 α4β7 KO
[2] = Protocol 5, RPMI-8866 cells with LOF mutation of ITGB7, VCAM, read-out: Mean IC50 α4β1 KO
[3] = RPMI-8866 cells with stable LOF mutation of the ITGB1 gene, read-out: Mean IC50 α4β7 KO^a
[4] = RPMI-8866 cells with stable LOF mutation of the ITGB7 gene, read-out: Mean IC50 α4β1 KO^b

Sequence of α4β1 integrin (P13612 34-1032): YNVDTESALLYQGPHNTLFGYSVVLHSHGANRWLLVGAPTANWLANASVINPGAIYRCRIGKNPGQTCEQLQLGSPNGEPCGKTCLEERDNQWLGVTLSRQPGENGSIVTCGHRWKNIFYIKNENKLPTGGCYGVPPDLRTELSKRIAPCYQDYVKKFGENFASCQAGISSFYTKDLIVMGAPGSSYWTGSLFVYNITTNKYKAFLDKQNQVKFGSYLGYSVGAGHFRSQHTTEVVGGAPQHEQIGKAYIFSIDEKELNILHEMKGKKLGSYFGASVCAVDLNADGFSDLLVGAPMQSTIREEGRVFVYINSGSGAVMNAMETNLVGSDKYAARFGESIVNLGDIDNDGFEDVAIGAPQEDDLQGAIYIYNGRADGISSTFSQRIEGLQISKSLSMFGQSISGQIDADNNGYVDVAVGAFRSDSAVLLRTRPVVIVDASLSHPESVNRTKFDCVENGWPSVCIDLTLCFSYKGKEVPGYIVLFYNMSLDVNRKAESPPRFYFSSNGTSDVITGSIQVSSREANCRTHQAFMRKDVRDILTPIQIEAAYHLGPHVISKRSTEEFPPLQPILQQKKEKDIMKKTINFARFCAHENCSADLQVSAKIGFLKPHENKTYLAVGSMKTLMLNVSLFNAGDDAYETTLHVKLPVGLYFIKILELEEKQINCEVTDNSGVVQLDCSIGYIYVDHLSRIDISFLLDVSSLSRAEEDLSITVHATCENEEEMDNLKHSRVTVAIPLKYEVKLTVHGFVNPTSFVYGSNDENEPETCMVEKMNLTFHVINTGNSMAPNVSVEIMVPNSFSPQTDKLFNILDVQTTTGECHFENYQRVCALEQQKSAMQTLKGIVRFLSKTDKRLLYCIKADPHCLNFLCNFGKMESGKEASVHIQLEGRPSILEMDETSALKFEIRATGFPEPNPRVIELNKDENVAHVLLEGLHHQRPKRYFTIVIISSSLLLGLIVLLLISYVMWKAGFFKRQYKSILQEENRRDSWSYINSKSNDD
Sequence of α4β1 integrin (P05556 21-798): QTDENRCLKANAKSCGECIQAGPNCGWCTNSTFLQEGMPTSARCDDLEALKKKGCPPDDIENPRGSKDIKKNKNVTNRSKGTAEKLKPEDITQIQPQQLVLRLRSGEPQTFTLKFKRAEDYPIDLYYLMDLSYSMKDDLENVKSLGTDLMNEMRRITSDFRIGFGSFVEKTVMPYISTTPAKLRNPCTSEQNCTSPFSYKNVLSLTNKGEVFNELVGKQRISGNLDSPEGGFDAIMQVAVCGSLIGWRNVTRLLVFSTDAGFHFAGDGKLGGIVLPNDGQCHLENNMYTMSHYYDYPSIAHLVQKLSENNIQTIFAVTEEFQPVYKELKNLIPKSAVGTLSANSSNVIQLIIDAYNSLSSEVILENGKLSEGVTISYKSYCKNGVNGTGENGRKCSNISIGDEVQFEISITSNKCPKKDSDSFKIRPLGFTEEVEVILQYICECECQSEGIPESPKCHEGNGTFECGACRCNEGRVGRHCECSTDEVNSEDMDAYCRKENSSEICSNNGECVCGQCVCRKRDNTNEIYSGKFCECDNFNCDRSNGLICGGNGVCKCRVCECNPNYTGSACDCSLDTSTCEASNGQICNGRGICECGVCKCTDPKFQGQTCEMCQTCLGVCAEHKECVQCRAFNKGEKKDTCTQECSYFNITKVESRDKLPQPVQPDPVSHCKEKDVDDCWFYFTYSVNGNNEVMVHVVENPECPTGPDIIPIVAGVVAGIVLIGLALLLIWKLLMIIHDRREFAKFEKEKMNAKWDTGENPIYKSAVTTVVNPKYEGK
Sequence of α4β7 integrin (P13612 34-1032): as the sequence (P13612 34-1032) above
Sequence of α4β7 integrin (P26010 20-798): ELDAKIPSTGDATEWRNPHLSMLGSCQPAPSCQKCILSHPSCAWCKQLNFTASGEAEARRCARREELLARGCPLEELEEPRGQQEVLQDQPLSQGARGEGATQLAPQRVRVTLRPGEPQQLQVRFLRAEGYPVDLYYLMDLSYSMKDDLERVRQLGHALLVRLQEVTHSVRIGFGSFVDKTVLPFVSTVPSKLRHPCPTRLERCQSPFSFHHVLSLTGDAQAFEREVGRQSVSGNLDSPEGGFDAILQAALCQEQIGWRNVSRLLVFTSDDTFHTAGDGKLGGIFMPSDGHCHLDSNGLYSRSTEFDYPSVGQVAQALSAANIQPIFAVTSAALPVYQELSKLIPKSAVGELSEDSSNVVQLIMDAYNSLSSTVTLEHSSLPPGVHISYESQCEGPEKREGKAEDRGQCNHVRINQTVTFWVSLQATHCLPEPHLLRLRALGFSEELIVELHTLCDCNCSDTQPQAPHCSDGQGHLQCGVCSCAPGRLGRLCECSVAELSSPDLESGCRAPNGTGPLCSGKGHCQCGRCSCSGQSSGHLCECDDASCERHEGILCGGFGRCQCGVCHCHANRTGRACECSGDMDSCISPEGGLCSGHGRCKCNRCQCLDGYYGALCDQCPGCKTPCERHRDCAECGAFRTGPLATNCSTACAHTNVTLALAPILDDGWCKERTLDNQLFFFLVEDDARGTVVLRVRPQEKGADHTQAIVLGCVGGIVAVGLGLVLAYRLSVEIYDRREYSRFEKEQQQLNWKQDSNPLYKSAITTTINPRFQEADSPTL

| Structure (SMILES) | IC50 (α4β7 integrin; [1]) [nM] | IC50 (α4β1 integrin; [2]) [nM] | IC50 (α4β7 integrin; [3]) [nM] | IC50 (α4β1 integrin; [4]) [nM] |
| --- | --- | --- | --- | --- |
| COc1ccc(CN2CCCCC2)c(OC)c1-c1cccc2c(C[C@H](NC(=O)c3c(F)cccc3C(C)C)C(=O)O)cccc12 [Compound 571] |  |  | < 10 | > 1000 |
| Cc1cccc(F)c1C(=O)N[C@@H](Cc1cccc2c(-c3nccc4c(CN5CCCC5)cccc34)cccc12)C(=O)O [Compound 619] |  |  | < 10 | > 1000 |
| CC(=O)CN1CCC(C(=O)N[C@@H](Cc2cccc3c(-c4c(C(F)(F)F)c5ccccc5n(C)c4=O)cccc23)C(=O)O)(C(F)(F)F)CC1 [Compound 519] |  |  | < 10 | 100 to 1000 |
| COc1ccc(CN2CCC3(CCCCC3)CC2)c(OC)c1-c1cccc2c(C[C@H](NC(=O)c3c(C)cccc3F)C(=O)O)cccc12 [Compound 654] |  |  | < 10 | > 1000 |
| COc1ccc(CN2CCC(C)(C)CC2)c(OC)c1-c1cccc2c(C[C@H](NC(=O)c3c(C)cccc3F)C(=O)O)cccc12 [Compound 626] |  |  | < 10 | 100 to 1000 |
| O=C(O)[C@H](Cc1cccc2c(-c3cc(CN4CCC(F)(F)C4)cc4ccncc34)cccc12)NC(=O)C1(C(F)(F)F)CCN(C2COC2)CC1 [Compound 598] |  |  | 10 to 100 | > 1000 |
| COc1ccc(CN(C)C)c(OC)c1-c1cccc2c(C[C@H](NC(=O)c3c(Cl)cccc3Cl)C(=O)O)cccc12 [Compound 612] |  |  | < 10 | 100 to 1000 |
| COc1ccc(CN2CCCCC2(C)C)c(OC)c1-c1cccc2c(C[C@H](NC(=O)c3c(C)cccc3F)C(=O)O)cccc12 [Compound 630] |  |  | < 10 | 100 to 1000 |
| CN(C)CCc1ccc2c(c1)c(C(F)(F)F)c(-c1cccc3c(C[C@H](NC(=O)c4c(F)cccc4CN4CCC(F)(F)CC4)C(=O)O)cccc13)c(=O)n2C [Compound 711] | < 10 | 100 to 1000 |  |  |
| Cn1c(=O)c(-c2cccc3c(C[C@H](NC(=O)C4(C(F)(F)F)CCN(CC(F)F)CC4)C(=O)O)cccc23)c(C(F)(F)F)c2ccccc21 (racemic) [Compound 480] |  |  | < 10 | 100 to 1000 |
| Cc1cccc(F)c1C(=O)N[C@@H](Cc1cccc2c(-c3c(C(F)(F)F)c4cc(CCN5CCCC5)ccc4n(C)c3=O)cccc12)C(=O)O [Compound 713] | < 10 | 100 to 1000 |  |  |
| COc1ccc(CN2C(C)CCCC2C)c(OC)c1-c1cccc2c(C[C@H](NC(=O)c3c(C)cccc3F)C(=O)O)cccc12 (stereo partly shown) [Compound 632] |  |  | < 10 | 100 to 1000 |
| COc1ccc(CN2CCC(F)(F)CC2)c(OC)c1-c1cccc2c(C[C@H](NC(=O)c3c(C)ccnc3F)C(=O)O)cccc12 [Compound 606] |  |  | 10 to 100 | > 1000 |
| COc1c(CN2CCCCC2)ccnc1-c1cccc2c(C[C@H](NC(=O)c3c(C)cccc3F)C(=O)O)cccc12 [Compound 1020] | 10 to 100 | > 1000 |  |  |

Results, then the molecule that gave them:

| IC50 (α4β7 integrin; [1]) [nM] | IC50 (α4β1 integrin; [2]) [nM] | IC50 (α4β7 integrin; [3]) [nM] | IC50 (α4β1 integrin; [4]) [nM] | Structure (SMILES) |
| --- | --- | --- | --- | --- |
| 10 to 100 | > 1000 |  |  | COc1ccc2c(c1-c1cccc3c(C[C@H](NC(=O)C4(C(F)(F)F)CCN(CC(F)(F)F)CC4)C(=O)O)cccc13)CN(CC(F)(F)F)CC2 [Compound 750] |
| 10 to 100 | > 1000 |  |  | O=C(O)[C@H](Cc1cccc2c(-c3ncccc3CN3CCCCC3)cccc12)NC(=O)C1(C(F)(F)F)CCN(CC(F)(F)F)CC1 [Compound 793] |
| < 10 | > 1000 |  |  | O=C(O)[C@H](Cc1cccc2c(-c3nccc4cccc(CN5CCCCC5)c34)cccc12)NC(=O)C1(C(F)(F)F)CCN(CC(F)(F)F)CC1 [Compound 864] |
| < 10 | 100 to 1000 |  |  | COc1ccc(CN2CCC(F)(F)CC2)cc1-c1cccc2c(C[C@H](NC(=O)C3(C(F)(F)F)CCN(CC(F)F)CC3)C(=O)O)cccc12 [Compound 927] |
|  |  | < 10 | > 1000 | O=C(O)[C@H](Cc1cccc2c(-c3nccc4ccc(CCCN5CCC(F)(F)CC5)cc34)cccc12)NC(=O)C1(C(F)(F)F)CCN(CC(F)(F)F)CC1 [Compound 539] |
| 10 to 100 | 100 to 1000 |  |  | CC1CCN(Cc2ccc3c(c2)c(C(F)(F)F)c(-c2cccc4c(C[C@H](NC(=O)C5(C(F)(F)F)CCN(CC(F)(F)F)CC5)C(=O)O)cccc24)c(=O)n3C)CCC1(F)F (stereo partly shown) [Compound 839] |
| 10 to 100 | > 1000 |  |  | COc1ccc(CN2CCCC(F)(F)C2)c(OC)c1-c1cccc2c(C[C@H](NC(=O)C3(C(F)(F)F)CCN(CC(F)(F)F)CC3)C(=O)O)cccc12 [Compound 825] |
| < 10 | 100 to 1000 |  |  | COc1ccc(CN2CCC(C(F)(F)F)CC2)c(OC)c1-c1cccc2c(C[C@H](NC(=O)C3(C(F)(F)F)CCN(CC(F)(F)F)CC3)C(=O)O)cccc12 [Compound 844] |
| 10 to 100 | > 1000 |  |  | CC1(C)CCCN(Cc2cnc(-c3cccc4c(C[C@H](NC(=O)C5(C(F)(F)F)CCN(CC(F)(F)F)CC5)C(=O)O)cccc34)c3ccccc23)C1 [Compound 873] |
| 10 to 100 | > 1000 |  |  | O=C(O)[C@H](Cc1cccc2c(-c3ncc(CN4CC(F)C4)c4ccccc34)cccc12)NC(=O)C1(C(F)(F)F)CCN(CC(F)(F)F)CC1 [Compound 865] |
| < 10 | > 1000 |  |  | O=C(O)[C@H](Cc1cccc2c(-c3ncc(CN4CCC4)c4ccccc34)cccc12)NC(=O)C1(C(F)(F)F)CCN(CC(F)F)CC1 [Compound 920] |
|  |  | < 10 | > 1000 | COc1ccc(CN2CC(OC(C)(C)C)C2)c(OC)c1-c1cccc2c(C[C@H](NC(=O)C3(C(F)(F)F)CCN(CC(F)(F)F)CC3)C(=O)O)cccc12 [Compound 657] |
| < 10 | > 1000 |  |  | COc1cc(CN2CCC(F)(F)C2)cc(OC)c1-c1cccc2c(C[C@H](NC(=O)C3(C(F)(F)F)CCN(CC(F)(F)F)CC3)C(=O)O)cccc12 [Compound 797] |
| 10 to 100 | > 1000 |  |  | COc1c(CN2CCCCC2)cc2cccnc2c1-c1cccc2c(C[C@H](NC(=O)C3(C(F)(F)F)CCN(CC(F)(F)F)CC3)C(=O)O)cccc12 [Compound 792] |
| < 10 | 100 to 1000 |  |  | C[C@@H]1CN(Cc2cnc(-c3cccc4c(C[C@H](NC(=O)C5(C(F)(F)F)CCN(CC(F)(F)F)CC5)C(=O)O)cccc34)c3ccccc23)C[C@H](C)N1 [Compound 893] |
